Reference: US11643405B2, “Compound for treatment or prevention of liver diseases” (JIANGSU ATOM BIOSCIENCE AND PHARMACEUTICAL CO., LTD., priority 2018, dated 2023)

What was measured:
in vivo = settings: both sexes, ICR, mouse, po
Protocol: The test compound was compound 7; the positive control silymarin was purchased from Shanghai Dibai Biotechnology Co., Ltd., with the batch number HH06. Immediately before use, the suspension was prepared with normal saline and ultrasound to prepare a suspension with a corresponding concentration.
Low-dose group (1.5 g/kg) solution preparation: the quantitative test compound 7 or positive control compound was precisely weighed, and a certain amount of normal saline was added to prepare the oral suspension solution with the concentration of 75 mg/mL. The administration volume was 20 mL/kg.
High-dose group (3.0 g/kg) solution preparation: the quantitative test compound 7 or positive control compound was precisely weighed, and a certain amount of normal saline was added to prepare the oral suspension solution with the concentration of 150 mg/mL. The administration volume was 20 mL/kg.
ICR mice, SPF grade, weight: 16-18 g, 6-8 weeks old. Provided by Nantong University, laboratory animal production license number: SCXK (Su) 2014-0001; laboratory animal use license: SYXK (Su) 2017-0007.
16 ICR mice were randomly divided into compound 7 low-dose group, compound 7 high-dose group, silymarin low-dose group and silymarin high-dose group, with 4 mice in each group, half male and half female. […]

[1] = tested on: zebrafish non-alcoholic fatty liver; test: Fat reduction or elimination effect on thioacetamide-induced zebrafish non-alcoholic fatty liver (Oil Red O staining); type: in vivo; settings: for The total optical density of liver fat: mean ± SE, n = 10
Protocol: 40 mM stock solution of test compounds 4, 5, 6, 7, 46, 67, 78, 85, 92 and 101 were prepared with DMSO, and stored in a refrigerator at −20° C. The positive control compound S-adenosylmethionine (SAM) was purchased from Aladdin Reagent (Shanghai) Co., Ltd., with the batch number F1523051, which was prepared into a 50 mM stock solution with DMSO. The control compound silymarin was purchased from Shanghai Dibai Biotechnology Co., Ltd., with the batch number EE09, which was prepared into a 40 mM stock solution with DMSO. Thioacetamide was purchased from Sigma-Aldrich, with the batch number BCBV3031, which wasprepared into a 1 M stock solution with DMSO. Oil Red O was purchased from Sigma-Aldrich, with the batch number SLBP5248V. 4% paraformaldehyde was purchased from Dingguo Biotechnology Co., Ltd., with the batch number 773001800. Propylene glycol was purchased from Sinopharm Chemical Reagent Co., Ltd., with the batch number 20170615.
The melanin allele mutant translucent Albino line zebrafish was reproduced in natural paired mating. The fish age was 3 days after fertilization, with 30 fish per experimental group.
The above zebrafish were raised in fish farming water at 28° C. (water quality: 200 mg instant sea salt was added to 1 L of reverse osmosis water, conductivity was 480-510 μS/cm; pH was 6.9-7.2; hardness was 53.7-71.6 mg/L CaCOs), the experimental animal use license number was: SYXK (Zhejiang) 2012-0171. Feeding management met the requirements of international AAALAC certification.
Three days after fertilization, the normal melanin allele mutant translucent Albino strain of zebrafish was randomly selected and placed in a six well plate with 30 fish per well (i.e. each experimental group), and then thioacetamide with the final concentration of 7 mM was used to treat zebrafish for 72 hours to establish the non-alcoholic fatty liver model.
The zebrafish were transferred to a six-well plate, with 30 fish per well (i.e., each experimental group) randomly. Non-alcoholic fatty liver model in zebrafish were induced by thioacetamide. 40 mM test compounds 4, 5, 6, 7, 46, 67, 78, 85, 92 and 101 were quantitatively transferred to a six-well plate, and diluted with water to the corresponding concentration. Test compounds 4, 5, 6 and 7 were formulated into two dose groups with final concentration of 100 μM and 200 μM, respectively; test compound 46 was formulated into a dose group with final concentration of 200 μM; test compounds 67, 78, 85, 92 and 101 were formulated into dose groups with a final concentration of 100 μM; 50 mM positive control SAM was formulated with water to a dose group with final concentration of 50 μM, and a 40 mM positive control silymarin was formulated with water to two concentration dose groups with final concentration of 100 μM and 200 μM. A normal control group (zebrafish treated with fish farming water) and a model control group were set at the same time, and the total volume of each well was 3 mL. Except for the normal control group, the other experimental groups were treated with thioacetamide for 72 hours and stained with Oil Red O. After staining, 10 zebrafish were randomly selected from each experimental group and photographed under a dissecting microscope, NIS-Elements D 3.10 advanced image processing software was used to perform image analysis and collect data, the total optical density (S) of zebrafish liver fat was statistically analyzed, and for the inhibitory effect of each experimental group on liver steatosis of zebrafishwas evaluated by the following formula, the results of statistical analysis were expressed as mean±SE: Inhibition rate of liver steatosis (%)=[S(model control group)−S(test compound group)]/[S(model control group)−S(normal control group)]×100%
Statistical analysis was performed using analysis of variance and Dunnett's T-test, and p<0.05 indicated a significant difference. […]

COc1cc(C2Oc3cc(C4Oc5cc(O)cc(O)c5CC4O)cc(O)c3OC2CO)ccc1O (stereo not shown) [Compound 7, 2-{8-hydroxy-3-(4-hydroxy-3-methoxyphenyl)-2-hydroxymethyl-2,3-dihydrobenzo[b][1,4]dioxan-6-yl}chroman-3,5,7-triol]
MTD at 14 days (in vivo): 3000 mg/kg
Therapeutic effect on non-alcoholic fatty liver of zebrafish (in words) ([1]; 100 μM): significant therapeutic effects
The total optical density of liver fat ([1]; 100 μM): 17835 ± 351 Pixels
Therapeutic effect on zebrafish non-alcoholic fatty liver (in words) ([1]; 200 μM): significant therapeutic effect
The total optical density of liver fat ([1]; 200 μM): 18090 ± 437 Pixels
inhibition at 100 µM ([1]; Danio rerio, 100 μM, read-out: Inhibition rate of liver steatosis): 98%
inhibition at 200 µM ([1]; Danio rerio, 200 μM, read-out: Inhibition rate of liver steatosis): 93%
